Test results from patent US11078193B2 (priority 2014, dated 2021).

Key:
[1] = system: HBV; test: anti HBV activity, HepG2.117 inducibly HBV producing cell line (Tet-off), intracellular HBV DNA by realtime PCR; format: cell-based; conditions: Hepatitis B virus, 72 h, HepG2.117 cells, 3 days of treatment
[2] = ATP based toxicity assay (ATPlite), HepG2 cell line; conditions: human, HepG2 cells, ATPlite (ATP levels)
Experimental: Alternatively, cytotoxicity was determined via an ATP-assay: The ATPlite kit from Perkin Elmer was used to assess compound cytotoxicity on the HepG2 cell line by determination of the ATP (adenosine triphosphate) levels. ATP is a marker for functional integrity and cell viability, because it is present in all metabolically active cells and any form of cell injury will result in a rapid decline in cellular ATP concentration. After compound incubation, 1 volume of ATPlite solution was added to the cells and the luminescence signal was measured.

[3] = system: HBV; test: anti-HBV activity, HepG2.2.15 stable transfected cell line, HBV DNA from secreted virions by realtime PCR; format: cell-based; conditions: Hepatitis B virus, 144 h, HepG2.2.15 cells, 6 days of treatment
[4] = Cytotoxicity, HepG2 cells, Resazurin assay; format: cell-based; conditions: human

Row | SMILES | EC50 [1] | CC50 at 4 days [2] | EC50 [3] | CC50 at 4 days [4]
1 | Cn1cc(S(=O)(=O)NC2(C(F)(F)F)COC2)c(F)c1C(=O)Nc1ccnc(C(F)F)c1F [Compound 208, N-[2-(difluoromethyl)-3-fluoro-4-pyridyl]-3-fluoro-1-methyl-4-[[3-(trifluoromethyl)oxetan-3-yl]sulfamoyl]pyrrole-2-carboxamide] | 40 nM | > 25000 nM |  | 
2 | Cn1cc(S(=O)(=O)NC(C)(C)C(F)(F)F)c(F)c1C(=O)Nc1ccnc(C#N)c1 [Compound 188, N-(2-cyano-4-pyridyl)-3-fluoro-1-methyl-4-[(2,2,2-trifluoro-1,1-dimethyl-ethyl)sulfamoyl]pyrrole-2-carboxamide] | 100 nM | > 25000 nM |  | 
3 | Cn1cc(S(=O)(=O)NC2(C(F)(F)F)COC2)c(F)c1C(=O)Nc1ccnc(Br)c1 [Compound 209, N-(2-bromo-4-pyridyl)-3-fluoro-1-methyl-4-[[3-(trifluoromethyl)oxetan-3-yl]sulfamoyl]pyrrole-2-carboxamide] | 90 nM | > 25000 nM |  | 
4 | Cn1cc(S(=O)(=O)NC(C)(C)C(F)(F)F)c(F)c1C(=O)Nc1ccnc(Br)c1 [Compound 191, N-(2-bromo-4-pyridyl)-3-fluoro-1-methyl-4-[(2,2,2-trifluoro-1,1-dimethyl-ethyl)sulfamoyl]pyrrole-2-carboxamide] | 60 nM | > 25000 nM |  | 
5 | Cn1cc(S(=O)(=O)NC2(C(F)(F)F)CC2)c(F)c1C(=O)Nc1ccnc(C(F)F)c1 [Compound 196, N-[2-(difluoromethyl)-4-pyridyl]-3-fluoro-1-methyl-4-[[1-(trifluoromethyl)cyclopropyl]sulfamoyl]pyrrole-2-carboxamide] | 20 nM | > 25000 nM |  | 
6 | Cc1c(S(=O)(=O)N[C@H](C)C(F)(F)F)c(F)c(C(=O)Nc2ccnc(C(F)F)c2)n1C [Compound 206, N-[2-(difluoromethyl)-4-pyridyl]-3-fluoro-1,5-dimethyl-4-[[(1R)-2,2,2-trifluoro-1-methyl-ethyl]sulfamoyl]pyrrole-2-carboxamide] | 20 nM | > 25000 nM |  | 
7 | C[C@@H](NS(=O)(=O)c1cn(C)c(C(=O)Nc2ccnc(C(F)(F)F)c2)c1Cl)C(F)(F)F [Compound 10, 3-Chloro-1-methyl-4-{[(1R)-2,2,2-trifluoro-1-methylethyl]sulfamoyl}-N-[2-(trifluoromethyl)pyridin-4-yl]-1H-pyrrole-2-carboxamide] | 160 nM |  | 70 nM | > 25000 nM
8 | Cn1cc(S(=O)(=O)NC2(C)COC2)cc1C(=O)Nc1cc(C(F)(F)F)ccn1 [Compound 4, 1-Methyl-4-[(3-methyloxetan-3-yl)sulfamoyl]-N-[4-(trifluoromethyl)pyridin-2-yl]-1H-pyrrole-2-carboxamide] | 2340 nM |  | > 1000 nM | > 25000 nM
9 | C[C@H](NS(=O)(=O)c1cn(C)c(C(=O)Nc2ccnc(C#N)c2)c1F)C(F)(F)F [Compound 19, N-(2-Cyanopyridin-4-yl)-3-fluoro-1-methyl-4-{[(1S)-2,2,2-trifluoro-1-methylethyl]sulfamoyl}-1H-pyrrole-2-carboxamide] | 100 nM |  | 160 nM | > 25000 nM
10 | C[C@@H](NS(=O)(=O)c1cn(C)c(C(=O)Nc2ccnc(Br)c2)c1F)C(C)(F)F [Compound 124, N-(2-bromo-4-pyridyl)-4-[[(1R)-2,2-difluoro-1-methyl-propyl]sulfamoyl]-3-fluoro-1-methyl-pyrrole-2-carboxamide] | 10 nM |  | < 100 nM | > 25000 nM
11 | CC[C@H](NS(=O)(=O)c1cc(C(=O)Nc2ccnc(C#N)c2)n(C)c1)C(F)(F)F [Compound 41, N-(2-cyano-4-pyridyl)-1-methyl-4-[[(1S)-1-(trifluoromethyl)propyl]-sulfamoyl]pyrrole-2-carboxamide] | 100 nM |  | 70 nM | > 25000 nM
12 | C[C@@H](NS(=O)(=O)c1cn(C)c(C(=O)Nc2cnc(F)c(Br)c2)c1Cl)C(F)(F)F [Compound 34, N-(5-bromo-6-fluoro-3-pyridyl)-3-chloro-1-methyl-4-[[(1R)-2,2,2-trifluoro-1-methyl-ethyl]sulfamoyl]pyrrole-2-carboxamide] | 100 nM |  | 50 nM | > 25000 nM
13 | C[C@@H](NS(=O)(=O)c1cn(C)c(C(=O)Nc2ccnc(Cl)c2F)c1Cl)C(F)(F)F [Compound 33, 3-chloro-N-(2-chloro-3-fluoro-4-pyridyl)-1-methyl-4-[[(1R)-2,2,2-trifluoro-1-methyl-ethyl]sulfamoyl]pyrrole-2-carboxamide] | 10 nM |  | 8 nM | > 25000 nM
14 | C[C@@H](NS(=O)(=O)c1cn(C)c(C(=O)Nc2ccnc(C(F)(F)F)c2)c1F)C(F)(F)F [Compound 21, 3-fluoro-1-methyl-[[(1R)-2,2,2-trifluoro-1-methyl-ethyl]sulfamoyl]-N-[2-(trifluoromethyl)-4-pyridyl]pyrrole-2-carboxamide] | 30 nM |  | 40 nM | > 25000 nM
15 | Cn1cc(S(=O)(=O)NC2(C)COC2)cc1C(=O)Nc1cncc(C(F)(F)F)c1 [Compound 2, 1-Methyl-4-[(3-methyloxetan-3-yl)sulfamoyl]-N-[5-(trifluoromethyl)pyridin-3-yl]-1H-pyrrole-2-carboxamide] | 10400 nM |  | > 1000 nM | > 25000 nM
16 | C[C@@H](NS(=O)(=O)c1cn(C)c(C(=O)Nc2cc(F)nc(F)c2)c1F)C(F)(F)F [Compound 30, N-(2,6-difluoro-4-pyridyl)-3-fluoro-1-methyl-4-[[(1R)-2,2,2-trifluoro-1-methyl-ethyl]sulfamoyl]pyrrole-2-carboxamide] | 10 nM |  | < 100 nM | > 25000 nM
17 | CC(C)NS(=O)(=O)c1cn(C)c(C(=O)Nc2ccnc(C(F)F)c2)c1F [Compound 82, N-[2-(difluoromethyl)-4-pyridyl]-3-fluoro-4-(isopropylsulfamoyl)-1-methyl-pyrrole-2-carboxamide] | 100 nM |  | 70 nM | > 25000 nM
18 | Cn1cc(S(=O)(=O)NC2(C)COC2)cc1C(=O)Nc1cccc(C(F)(F)F)n1 [Compound 5, 1-Methyl-4-[(3-methyloxetan-3-yl)sulfamoyl]-N-[6-(trifluoromethyl)pyridin-2-yl]-1H-pyrrole-2-carboxamide] | 3110 nM |  | 920 nM | > 25000 nM
19 | Cc1cc(NC(=O)c2c(Cl)c(S(=O)(=O)N[C@H](C)C(F)(F)F)cn2C)cnc1F [Compound 13, 3-Chloro-N-(6-fluoro-5-methylpyridin-3-yl)-1-methyl-4-{[(1R)-2,2,2-trifluoro-1-methylethyl]sulfamoyl}-1H-pyrrole-2-carboxamide] | 180 nM |  | 110 nM | > 25000 nM
20 | Cn1cc(S(=O)(=O)NC2(C(F)(F)F)CCC2)cc1C(=O)Nc1ccnc(Cl)c1 [Compound 48, N-(2-chloro-4-pyridyl)-1-methyl-4-[[1-(trifluoromethyl)cyclobutyl]-sulfamoyl]pyrrole-2-carboxamide] | 40 nM |  | 60 nM | > 25000 nM
21 | C[C@@H](NS(=O)(=O)c1cn(C)c(C(=O)Nc2cc(F)nc(F)c2)c1Cl)C(F)(F)F [Compound 35, 3-chloro-N-(2,6-difluoro-4-pyridyl)-1-methyl-4-[[(1R)-2,2,2-trifluoro-1-methyl-ethyl]sulfamoyl]pyrrole-2-carboxamide] | 10 nM |  | 5 nM | > 25000 nM
22 | Cn1cc(S(=O)(=O)NC(C)(C)C)c(Cl)c1C(=O)Nc1ccnc(C#N)c1 [Compound 6, 4-(tert-Butylsulfamoyl)-3-chloro-N-(2-cyanopyridin-4-yl)-1-methyl-1H-pyrrole-2-carboxamide] | 650 nM |  | 590 nM | > 25000 nM
23 | Cn1cc(S(=O)(=O)NC2(C)CC(F)(F)C2)c(Cl)c1C(=O)Nc1ccnc(C#N)c1 [Compound 64, 3-chloro-N-(2-cyano-4-pyridyl)-4-[(3,3-difluoro-1-methyl-cyclobutyl)-sulfamoyl]-1-methyl-pyrrole-2-carboxamide] | 30 nM |  | 20 nM | 23000 nM
24 | CC[C@@H](NS(=O)(=O)c1cn(C)c(C(=O)Nc2ccnc(C#N)c2)c1F)C(F)(F)F [Compound 31, N-(2-cyano-4-pyridyl)-3-fluoro-1-methyl-4-[[(1R)-1-(trifluoromethyl)propyl]-sulfamoyl]pyrrole-2-carboxamide] | 40 nM |  | 30 nM | > 25000 nM
25 | C[C@@H](NS(=O)(=O)c1cn(C)c(C(=O)Nc2ccnc(C(C)(F)F)c2)c1F)C(F)(F)F [Compound 129, N-[2-(1,1-difluoroethyl)-4-pyridyl]-3-fluoro-1-methyl-4-[[(1R)-2,2,2-trifluoro-1-methyl-ethyl]sulfamoyl]pyrrole-2-carboxamide] | 400 nM |  | 810 nM | > 25000 nM
26 | Cn1cc(S(=O)(=O)NC2(C)CC(F)(F)C2)c(Cl)c1C(=O)Nc1ccnc(F)c1 [Compound 116, 3-chloro-4-[(3,3-difluoro-1-methyl-cyclobutyl)sulfamoyl]-N-(2-fluoro-4-pyridyl)-1-methyl-pyrrole-2-carboxamide] | 20 nM |  | 210 nM | > 25000 nM
27 | Cc1cc(NC(=O)c2cc(S(=O)(=O)NC3(C)COC3)cn2C)cnc1F [Compound 3, N-(6-Fluoro-5-methylpyridin-3-yl)-1-methyl-4-[(3-methyloxetan-3-yl)sulfamoyl]-1H-pyrrole-2-carboxamide] | 750 nM |  | > 1000 nM | > 25000 nM
